Data on 20 molecules can be found in patent publication US10988459B2 (priority 2015, dated 2021).

The assay deals with human RIP1 kinase domain (2-375) (Homo sapiens (Human), UniProt Q13546). Description: biochemical. To be noted: human RIP1 kinase domain (2-375), Transcreener ADP assay, 50 uM ATP, 2 hours incubation; read-out: RIP1 Ki. Format: biochemical. In short, it runs like this:
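50 nM purified kinase domain from baculovirus-infected insect cells, incubated 2 h with compound in 50 mM Hepes pH 7.5, 30 mM MgCl2, 1 mM DTT, 50 uM ATP, 0.002% Brij-35, 0.5% DMSO. ADP formation read by Transcreener FP at 633 nm excitation. Ki^app fitted with the Morrison tight-binding equation.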

Chain of human RIP1 kinase domain (2-375) (Q13546 2-375): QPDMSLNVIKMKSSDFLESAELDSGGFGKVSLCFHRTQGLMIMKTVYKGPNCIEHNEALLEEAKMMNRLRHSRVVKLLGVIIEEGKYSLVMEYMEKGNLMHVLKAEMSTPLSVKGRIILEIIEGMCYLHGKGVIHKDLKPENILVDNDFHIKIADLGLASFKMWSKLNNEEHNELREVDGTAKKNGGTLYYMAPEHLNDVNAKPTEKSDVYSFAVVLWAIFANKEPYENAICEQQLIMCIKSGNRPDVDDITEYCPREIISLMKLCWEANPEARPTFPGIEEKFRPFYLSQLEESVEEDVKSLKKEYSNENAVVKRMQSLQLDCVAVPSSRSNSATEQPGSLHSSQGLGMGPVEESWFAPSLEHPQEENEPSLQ

With `CN1C(=O)C(NC(=O)c2ncn(CC3CCOCC3)n2)CCn2nc(C3CC3)cc21` (centres unmarked) [Example 254, N-(2-cyclopropyl-4-methyl-5-oxo-5,6,7,8-tetrahydro-4H-pyrazolo[1,5-a][1,3]diazepin-6-yl)-1-((tetrahydro-2H-pyran-4-yl)methyl)-1H-1,2,4-triazole-3-carboxamide], the Ki came out at 2200 nM.
For `CN1C(=O)C(NC(=O)c2ncn(CC3CCC(F)(F)CC3)n2)CCn2nc(C3CC3)cc21` (centres unmarked) [Example 255, N-(2-cyclopropyl-4-methyl-5-oxo-5,6,7,8-tetrahydro-4H-pyrazolo[1,5-a][1,3]diazepin-6-yl)-1-((4,4-difluorocyclohexyl)methyl)-1H-1,2,4-triazole-3-carboxamide] the value was 421 nM; for `CN1C(=O)C(NC(=O)c2ncn(CC3CCC3)n2)CCn2nc(C3CC3)cc21` (centres unmarked) [Example 256, 1-(cyclobutylmethyl)-N-(2-cyclopropyl-4-methyl-5-oxo-5,6,7,8-tetrahydro-4H-pyrazolo[1,5-a][1,3]diazepin-6-yl)-1H-1,2,4-triazole-3-carboxamide], 210 nM; for `CN1C(=O)C(NC(=O)c2ncn(Cc3ccc(F)cc3)n2)CCn2nc(C3CC3)cc21` (centres unmarked) [Example 257, N-(2-cyclopropyl-4-methyl-5-oxo-5,6,7,8-tetrahydro-4H-pyrazolo[1,5-a][1,3]diazepin-6-yl)-1-(4-fluorobenzyl)-1H-1,2,4-triazole-3-carboxamide], 82.9 nM.
`CN1C(=O)C(NC(=O)c2ncn(CCC(F)(F)F)n2)CCn2nc(C3CC3)cc21` (centres unmarked) [Example 258, N-(2-cyclopropyl-4-methyl-5-oxo-5,6,7,8-tetrahydro-4H-pyrazolo[1,5-a][1,3]diazepin-6-yl)-1-(3,3,3-trifluoropropyl)-1H-1,2,4-triazole-3-carboxamide]: the Ki stood at 1600 nM.
The figure for `Cc1cccc(Cn2cnc(C(=O)NC3CCn4nc(C5CC5)cc4N(C)C3=O)n2)n1` (centres unmarked) [Example 259, N-(2-cyclopropyl-4-methyl-5-oxo-5,6,7,8-tetrahydro-4H-pyrazolo[1,5-a][1,3]diazepin-6-yl)-1-((6-methylpyridin-2-yl)methyl)-1H-1,2,4-triazole-3-carboxamide] is 789 nM; for `CN1C(=O)C(NC(=O)c2ncn(CC3CC3)n2)CCn2nc(C3CC3)cc21` (centres unmarked) [Example 260, N-(2-cyclopropyl-4-methyl-5-oxo-5,6,7,8-tetrahydro-4H-pyrazolo[1,5-a][1,3]diazepin-6-yl)-1-(cyclopropylmethyl)-1H-1,2,4-triazole-3-carboxamide] it is 1900 nM.
The figure for `CN1C(=O)C(NC(=O)c2ncn(CC3CCCC3)n2)CCn2nc(C3CC3)cc21` (centres unmarked) [Example 261, 1-(cyclopentylmethyl)-N-(2-cyclopropyl-4-methyl-5-oxo-5,6,7,8-tetrahydro-4H-pyrazolo[1,5-a][1,3]diazepin-6-yl)-1H-1,2,4-triazole-3-carboxamide] is 104 nM.
The figure for `Cc1cc2n(n1)CC[C@H](NC(=O)c1ncn(CC3CC3(F)F)n1)C(=O)N2C` (stereo partly drawn) [Example 262, 1-((2,2-difluorocyclopropyl)methyl)-N—((S)-2,4-dimethyl-5-oxo-5,6,7,8-tetrahydro-4H-pyrazolo[1,5-a][1,3]diazepin-6-yl)-1H-1,2,4-triazole-3-carboxamide] is 511 nM.
With `CC[C@@]1(C)OCc2cnc(C(=O)NC3CCn4cnc(C)c4N(C)C3=O)cc21` (stereo partly drawn) [Example 263, (1R)—N-(1,9-dimethyl-2-oxo-2,3,4,5-tetrahydro-1H-imidazo[1,5-a][1,3]diazepin-3-yl)-1-ethyl-1-methyl-1,3-dihydrofuro[3,4-c]pyridine-6-carboxamide], the Ki is 854 nM.
Take `CC[C@@]1(C)OCc2cc(C(=O)NC3CCn4nc(-c5ccccc5)cc4N(C)C3=O)ncc21` (stereo partly drawn) [Example 264, (3R)-3-ethyl-3-methyl-N-(4-methyl-5-oxo-2-phenyl-5,6,7,8-tetrahydro-4H-pyrazolo[1,5-a][1,3]diazepin-6-yl)-1,3-dihydrofuro[3,4-c]pyridine-6-carboxamide]: the Ki was 232 nM.
Turning to `CC[C@]1(C)OCc2cc(C(=O)NC3CCn4nc(-c5ccccc5)cc4N(C)C3=O)ncc21` (stereo partly drawn) [Example 265, (3S)-3-ethyl-3-methyl-N-(4-methyl-5-oxo-2-phenyl-5,6,7,8-tetrahydro-4H-pyrazolo[1,5-a][1,3]diazepin-6-yl)-1,3-dihydrofuro[3,4-c]pyridine-6-carboxamide], the Ki was determined as 4900 nM.
As to `Cc1cc2n(n1)CC[C@H](NC(=O)c1cc3c(cn1)COC3(C)CC(F)(F)F)C(=O)N2C` (stereo partly drawn) [Example 266, N—((S)-2,4-dimethyl-5-oxo-5,6,7,8-tetrahydro-4H-pyrazolo[1,5-a][1,3]diazepin-6-yl)-1-m ethyl-1-(2,2,2-trifluoroethyl)-1,3-dihydrofuro[3,4-c]pyridine-6-carboxamide], the inhibitory constant (Ki) was 1300 nM.
For `CN1C(=O)[C@@H](NC(=O)c2cc3c(cn2)COC3(C)C2CC2)COc2ccccc21` (stereo partly drawn) [Example 267, 1-cyclopropyl-1-methyl-N—((S)-5-methyl-4-oxo-2,3,4,5-tetrahydrobenzo[b][1,4]oxazepin-3-yl)-1,3-dihydrofuro[3,4-c]pyridine-6-carboxamide] the value was 37.4 nM; for `Cc1cc2n(n1)CCC(NC(=O)c1ncn(Cc3ccc(F)cc3)n1)C(=O)N2C` (centres unmarked) [Example 268, N-(2,4-dimethyl-5-oxo-5,6,7,8-tetrahydro-4H-pyrazolo[1,5-a][1,3]diazepin-6-yl)-1-(4-fluorobenzyl)-1H-1,2,4-triazole-3-carboxamide], 97.7 nM.
In the case of `CN1C(=O)C(NC(=O)c2ncn(CC3CC(F)(F)C3)n2)CCn2nc(C3CC3)cc21` (centres unmarked) [Example 269, N-(2-cyclopropyl-4-methyl-5-oxo-5,6,7,8-tetrahydro-4H-pyrazolo[1,5-a][1,3]diazepin-6-yl)-1-((3,3-difluorocyclobutyl)methyl)-1H-1,2,4-triazole-3-carboxamide], the Ki turned out to be 811 nM.
The figure for `Cc1cc2n(n1)CC[C@H](NC(=O)c1ncn(C(C)c3ccc(F)cc3)n1)C(=O)N2C` (stereo partly drawn) [Example 270, N—((S)-2,4-dimethyl-5-oxo-5,6,7,8-tetrahydro-4H-pyrazolo[1,5-a][1,3]diazepin-6-yl)-1-(1-(4-fluorophenyl)ethyl)-1H-1,2,4-triazole-3-carboxamide] is 88.5 nM.
For `Cc1cc2n(n1)CC[C@H](NC(=O)c1ncn(C(C)c3ccccc3)n1)C(=O)N2C` (stereo partly drawn) [Example 271, N—((S)-2,4-dimethyl-5-oxo-5,6,7,8-tetrahydro-4H-pyrazolo[1,5-a][1,3]diazepin-6-yl)-1-(1-phenylethyl)-1H-1,2,4-triazole-3-carboxamide] the value was 93.6 nM; for `Cc1nn2c(c1C)N(C)C(=O)[C@@H](NC(=O)c1ncn(Cc3cccc(F)c3F)n1)CC2` [Example 272, (S)-1-(2,3-difluorobenzyl)-N-(2,3,4-trimethyl-5-oxo-5,6,7,8-tetrahydro-4H-pyrazolo[1,5-a][1,3]diazepin-6-yl)-1H-1,2,4-triazole-3-carboxamide], 45.2 nM.
`Cc1nn2c(c1C)N(C)C(=O)[C@@H](NC(=O)c1ncn(Cc3ccc(F)c(F)c3)n1)CC2` [Example 273, (S)-1-(3,4-difluorobenzyl)-N-(2,3,4-trimethyl-5-oxo-5,6,7,8-tetrahydro-4H-pyrazolo[1,5-a][1,3]diazepin-6-yl)-1H-1,2,4-triazole-3-carboxamide]: the Ki amounted to 46.7 nM.
